Data as given in PMC11088877, “AMP-activated protein kinase can be allosterically activated by ADP but AMP remains the key activating ligand” (Biochemical Journal, 2024).
Where “and” joins values, the source holds several entries; their conditions need not be identical. Equal entries are not always repeated.

What was measured:
Format in all cases: biochemical
[1] = biological target: T1, phosphorylated human α2β2γ1 complex (WT) (Homo sapiens, UniProt P54619+P54646); experiment: AMPK inactivation and Thr172 dephosphorylation by PP2Cα (PPM1A), WT; conditions: 300 µM nucleotide, absence of ATP
T1 construct: made in house; host or cells: Escherichia coli
Experimental: (§1) The relative roles of the three CBS sites in the other two mechanisms of activation of AMPK by AMP or ADP, i.e. promotion of Thr172 phosphorylation by LKB1, and protection against Thr172 dephosphorylation by protein phosphatases, have not been examined previously. As expected, incubation of the α2β2γ1 AMPK complex with a fixed, limiting amount of purified LKB1:STRADα:MO25α complex in the presence of 200 µM Mg.ATP^2− caused a large degree of activation (Figure 5A) and phosphorylation (Figure 5B) of AMPK (unphosphorylated α2β2γ1 complex), which were stimulated more than 2-fold by 300 µM AMP and 1.6-fold by 300 µM ADP.
(§2) Figure 6. Effects of AMP or ADP on AMPK inactivation and Thr172 dephosphorylation by PP2Cα (PPM1A). Human α2β2γ1 complexes (WT, or with L129D/V130D, V276G/L277G or I312G mutations affecting CBS1, CBS3 or CBS4 respectively), all phosphorylated on Thr172, were incubated with a fixed concentration of PP2Cα (PPM1A) in the presence or absence of AMP or ADP (both 300 µM) as described in the Materials and methods section. After the incubation, aliquots were withdrawn for (A) AMPK assay or (B) Western blots. […] For (B), due to a limit on the number of lanes that could be run on one gel, single replicates from the triplicate assays were analysed. […]

[2] = biological target: T2, GST-tagged human α2 kinase domain (Homo sapiens, UniProt P54646); experiment: Inhibition of GST:α2-kinase domain fusion by AMP or ADP; conditions: for Activation / IC50: α2 kinase domain
T2 construct: Human GST-tagged α2 kinase domain (1–310); made in house
Excerpt: To confirm that the inhibition of kinase activity by ADP at high concentrations was due to competition with ATP at the catalytic site on the α subunit, we repeated the assays using a glutathione-S-transferase- (GST-) tagged human α2 kinase domain that had been phosphorylated by LKB1. […] These IC50 values were similar to those obtained with the intact heterotrimers from rat liver (Supplementary Table S1).
Figure 3. Inhibition of GST:α2-kinase domain fusion by AMP or ADP. The kinase domain (phosphorylated on Thr172 by the LKB1:STRADα:MO25α complex) was incubated with various concentrations of AMP or ADP as in Figure 1 using [ATP] at 0.2 (A), 1.0 (B) or 5.0 mM (C) and keeping [Mg^2+] in a constant excess of 4.8 mM above [ATP] [19]. Results (mean ± SD, n = 2) were fitted to the equation: Y = Basal-(Basal × X)/(IC50 + X) where Y is the kinase activity, X is the concentration of AMP or ADP, and IC50 is the concentration of AMP or ADP causing half-maximal inhibition. Dashed vertical lines show the estimates of IC50 values, and best-fit values of all parameters used to generate the curves are listed in Supplementary Table S1.
Sources of antibodies were as described: pThr172 (AMPK-α: Cell Signaling Technologies, Danvers, MA, U.S.A., Cat# 2535), AMPK-α2 [22]. Rat liver AMPK was purified as described previously. Plasmid encoding human (His)6-tagged AMPK (α2β2γ1, bacterially expressed) generated as in [23], was a gift from AstraZeneca, Cambridge, U.K. The L129D/V130D (CBS1), V276G/L277G (CBS3) and I312G (CBS4) mutations in the α2β2γ1 complex were generated using the Quikchange II site-directed mutagenesis kit (Agilent Technologies) and confirmed by DNA sequencing. Human GST-tagged α2 kinase domain (1–310), LKB1:STRAD-α:MO25-α complexes, GST-tagged CaMKK2 [26], and PPM1A (PP2Cα) were produced as described. Bacterially expressed heterotrimers were activated by phosphorylation of Thr172 by GST-tagged CaMKK2 in the presence of ATP, and CaMKK2 was subsequently removed by passage through glutathione-Sepharose. Human GST-tagged α2 kinase domain was activated in a similar manner except that human (His)6-tagged LKB1:STRAD-α:MO25-α complex was used and removed after activation via passage through a His-Trap column. Recombinant human 5′-nucleotidase, CD73, Cat # 5795-EN-01, was from R&D systems (Minneapolis, MN, U.S.A.).
AMPK assays measured the transfer of radioactivity from [γ-^33P]ATP to a peptide substrate, which was separated from unreacted ATP by binding to P81 paper. This assay was described previously except that we used [γ-^33P] rather than [γ-^32P]ATP. In some assays (specified in Figure legends) the concentration of ATP was increased from 0.2 to 1 or 5 mM ATP, with MgCl2 concentrations maintained at a constant 4.8 mM excess above the concentration of ATP [19]. Where allosteric activation by AMP or ADP was being studied, we used the SAMS peptide as substrate. For all other assays the AMARA peptide was used.

[3] = biological target: T3, human α2β2γ1 complex, CBS4 mutant (I312G) (Homo sapiens, UniProt P54619+P54646, I312G); experiment: AMPK inactivation and Thr172 dephosphorylation by PPM1A, CBS4 mutant; conditions: 300 µM nucleotide, absence of ATP
T3 construct: made in house; host or cells: Escherichia coli
Experimental: as §1, §2

T2 sequence (P54646 1-310): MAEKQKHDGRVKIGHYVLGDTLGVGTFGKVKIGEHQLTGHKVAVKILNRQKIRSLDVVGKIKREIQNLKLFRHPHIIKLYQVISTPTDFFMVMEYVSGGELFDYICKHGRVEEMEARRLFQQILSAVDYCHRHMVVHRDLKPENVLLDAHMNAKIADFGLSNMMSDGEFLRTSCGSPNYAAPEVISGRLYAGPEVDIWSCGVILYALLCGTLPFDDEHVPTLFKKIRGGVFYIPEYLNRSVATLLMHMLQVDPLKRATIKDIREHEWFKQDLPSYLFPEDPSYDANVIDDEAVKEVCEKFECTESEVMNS
T3 sequence (P54619 whole entry I312G): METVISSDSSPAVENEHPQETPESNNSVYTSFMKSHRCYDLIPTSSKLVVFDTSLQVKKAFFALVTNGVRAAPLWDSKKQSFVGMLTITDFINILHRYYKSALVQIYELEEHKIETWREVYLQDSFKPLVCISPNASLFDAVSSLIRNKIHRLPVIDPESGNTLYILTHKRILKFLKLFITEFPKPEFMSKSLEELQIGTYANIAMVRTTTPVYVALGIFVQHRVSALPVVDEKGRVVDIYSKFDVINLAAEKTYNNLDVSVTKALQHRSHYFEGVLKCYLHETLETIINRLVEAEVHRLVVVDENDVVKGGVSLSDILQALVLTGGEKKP
T3 sequence (P54646 whole entry): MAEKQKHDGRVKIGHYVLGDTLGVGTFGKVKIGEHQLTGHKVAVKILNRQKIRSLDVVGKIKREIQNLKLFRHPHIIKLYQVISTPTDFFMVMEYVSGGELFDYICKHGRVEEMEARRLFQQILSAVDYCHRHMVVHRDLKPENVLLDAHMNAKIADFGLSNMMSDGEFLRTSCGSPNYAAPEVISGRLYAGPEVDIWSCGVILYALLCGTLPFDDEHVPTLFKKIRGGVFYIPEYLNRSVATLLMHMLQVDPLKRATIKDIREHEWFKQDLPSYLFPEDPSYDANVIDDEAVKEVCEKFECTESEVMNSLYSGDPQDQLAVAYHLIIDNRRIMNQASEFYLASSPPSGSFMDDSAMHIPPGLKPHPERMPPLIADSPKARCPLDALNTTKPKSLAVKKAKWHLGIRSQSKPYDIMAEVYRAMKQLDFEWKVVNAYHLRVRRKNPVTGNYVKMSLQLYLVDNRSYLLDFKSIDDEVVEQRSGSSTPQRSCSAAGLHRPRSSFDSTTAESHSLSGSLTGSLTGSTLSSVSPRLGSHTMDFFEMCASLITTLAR
T3 sequence (O43741 whole entry partner): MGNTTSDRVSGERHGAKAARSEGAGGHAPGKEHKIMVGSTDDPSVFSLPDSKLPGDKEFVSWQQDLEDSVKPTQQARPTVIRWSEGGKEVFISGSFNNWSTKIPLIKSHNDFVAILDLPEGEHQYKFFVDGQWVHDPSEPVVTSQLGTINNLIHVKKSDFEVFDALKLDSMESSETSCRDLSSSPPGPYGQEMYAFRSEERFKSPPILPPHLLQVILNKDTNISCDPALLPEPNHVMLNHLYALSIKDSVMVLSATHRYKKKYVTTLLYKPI
T1 sequence (P54619 whole entry): as the sequence (P54619 whole entry I312G) above, with G312I counted along it
T1 sequence (P54646 whole entry): as the sequence (P54646 whole entry) above
T1 sequence (O43741 whole entry partner): as the sequence (O43741 whole entry partner) above

| SMILES | inactivation and dephosphorylation of AMPK by PPM1A in the presence of nucleotide [1] | Activation ([2]; 0.2 mM ATP) | IC50 ([2]; 0.2 mM ATP) [mM] | Activation ([2]; 1.0 mM ATP) | IC50 ([2]; 1.0 mM ATP) [mM] | Activation ([2]; 5.0 mM ATP) | IC50 ([2]; 5.0 mM ATP) | protective effect of nucleotide against PPM1A in the mutant [3] | IC50 of AMP relative to IC50 of ADP ([2]; GST-α2 kinase domain, 0.2 to 5 mM ATP) [fold] |
| --- | --- | --- | --- | --- | --- | --- | --- | --- | --- |
| Nc1ncnc2c1ncn2[C@@H]1O[C@H](COP(=O)(O)OP(=O)(O)O)[C@@H](O)[C@H]1O [ADP] | greatly reduced | none | 0.67 | none | 1.6 | none | 3.5 mM | almost completely abolished |  |
| Nc1ncnc2c1ncn2[C@@H]1O[C@H](COP(=O)(O)O)[C@@H](O)[C@H]1O [AMP] | greatly reduced | none | 2.2 | none | 5.4 | none | 13 mM and 13.4 mM | almost completely abolished | ~3 |
